Read-outs that look alike come from different tables or passages of the source.
How the values were obtained:
rat 5-HT2C = target: T1, rat 5-HT2C (Rattus norvegicus, UniProt P08909); assay: Primary radioligand competitive binding assay, [3H]mesulergine; details: ligand 10 μM, HEK293 cells
T1 construct: expressed in transfected cells; host or cells: HEK293 (Flp-In system, pcDNA5.0FRT)
T1 sequence (P08909 33-460): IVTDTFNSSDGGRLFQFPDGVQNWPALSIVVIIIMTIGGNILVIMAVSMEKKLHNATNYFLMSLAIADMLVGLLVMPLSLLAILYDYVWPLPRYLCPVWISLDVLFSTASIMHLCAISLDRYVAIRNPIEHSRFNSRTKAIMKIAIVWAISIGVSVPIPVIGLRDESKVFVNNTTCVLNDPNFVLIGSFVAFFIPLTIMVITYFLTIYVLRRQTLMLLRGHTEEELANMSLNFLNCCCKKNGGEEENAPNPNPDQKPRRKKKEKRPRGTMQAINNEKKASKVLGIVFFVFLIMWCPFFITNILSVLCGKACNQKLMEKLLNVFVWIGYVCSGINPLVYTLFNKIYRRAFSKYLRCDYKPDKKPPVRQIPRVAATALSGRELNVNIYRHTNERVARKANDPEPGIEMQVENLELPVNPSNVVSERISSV
Procedure: (§1) HEK293 cells and CHO cells were used in the radioligand binding assay while tsA-201 cells were used in the electrophysiological study. Human CB2, human 5-HT2A, rat 5-HT2C used in the binding studies were cloned into pcDNA5.0FRT and cell lines were made using the FlpIn system from Invitrogen. tsA-201 cell culture and transient calcium channel transfection were performed as described previously. In brief, tsA-201 cells were transfected using the calcium phosphate method. Cav3.1, 3.2 and 3.3 α1 subunits were transfected individually with yellow fluorescent protein as a transfection marker.
(§2) Radioligand binding data were obtained using National Institute of Mental Health's Psychoactive Drug Screening Program (NIMH/PDSP) using the same protocol described for CB1 and CB2 binding experiments. Transfected HEK293 (human 5-HT2A or rat 5-HT2C) cells were used. The radioligands were [^3H]ketanserin (0.5 nM) and [^3H]mesulergine (0.5 nM) for respectively 5-HT2A and 5-HT2C experiments. Non-specific binding was determined in the presence of 10 μM chlorpromazine for both 5-HT2A and 5-HT2C binding experiments. Cells were harvested and homogenized in 50 mM Tris HCl, 10 mM MgCl2, 0.1 mM EDTA, pH 7.4. Incubation of radioreceptor binding assay mixtures was 1.5 hours at room temperature in the dark.

human 5-HT2A = target: T2, human 5-HT2A (Homo sapiens, UniProt P28223); assay: Primary radioligand competitive binding assay, [3H]ketanserin; details: ligand 10 μM, HEK293 cells
T2 construct: expressed in transfected cells; host or cells: HEK293 (Flp-In system, pcDNA5.0FRT)
T2 sequence (P28223 whole entry): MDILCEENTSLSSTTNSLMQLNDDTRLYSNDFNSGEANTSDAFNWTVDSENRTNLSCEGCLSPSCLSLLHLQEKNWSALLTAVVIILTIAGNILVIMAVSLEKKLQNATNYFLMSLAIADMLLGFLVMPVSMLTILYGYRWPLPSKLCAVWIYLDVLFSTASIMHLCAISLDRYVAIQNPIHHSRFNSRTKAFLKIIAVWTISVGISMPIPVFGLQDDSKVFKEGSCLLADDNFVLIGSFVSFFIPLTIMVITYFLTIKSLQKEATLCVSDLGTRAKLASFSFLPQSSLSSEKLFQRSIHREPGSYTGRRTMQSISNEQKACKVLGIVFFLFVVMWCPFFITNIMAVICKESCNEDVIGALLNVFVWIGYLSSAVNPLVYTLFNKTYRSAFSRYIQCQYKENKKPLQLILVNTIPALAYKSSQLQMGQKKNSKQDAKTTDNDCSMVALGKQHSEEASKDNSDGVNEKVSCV
Procedure: as §1, §2

Rat CB1 = target: T3, Rat CB1 (Rattus norvegicus, UniProt P20272); assay: Radioligand competitive binding, [3H]CP55940, rat brain homogenate; details: for Rat CB1 (%) primary radioligand competitive binding: ligand 10 μM, rat brain homogenates
T3 construct: membrane fractions prepared from rat brain homogenate expressing CB1 receptor; from tissue; host or cells: rat brain homogenate
T3 sequence (P20272 whole entry): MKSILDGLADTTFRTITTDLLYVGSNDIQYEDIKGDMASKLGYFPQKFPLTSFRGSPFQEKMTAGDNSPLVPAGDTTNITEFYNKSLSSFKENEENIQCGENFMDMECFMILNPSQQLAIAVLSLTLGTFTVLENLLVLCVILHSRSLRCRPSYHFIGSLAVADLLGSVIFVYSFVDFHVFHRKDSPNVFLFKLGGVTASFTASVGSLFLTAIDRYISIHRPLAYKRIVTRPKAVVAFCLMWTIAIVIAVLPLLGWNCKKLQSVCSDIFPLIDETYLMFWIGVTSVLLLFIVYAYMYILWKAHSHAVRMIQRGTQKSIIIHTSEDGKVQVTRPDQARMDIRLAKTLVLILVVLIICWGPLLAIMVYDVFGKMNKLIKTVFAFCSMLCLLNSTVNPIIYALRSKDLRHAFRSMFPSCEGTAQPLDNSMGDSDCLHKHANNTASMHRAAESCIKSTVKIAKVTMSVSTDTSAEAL
Procedure: (§3) CB1 and CB2 radioligand binding data were obtained using National Institute of Mental Health (NIMH) Psychoactive Drug Screening Program (PDSP) resources as described earlier. Compounds were screened in a competitive binding experiment using, respectively, membrane fractions prepared from rat brain homogenate expressing CB1 receptor and HEK293 cells expressing the human CB2 receptor. Experiments were conducted at a range of different concentrations and in duplicate. The competition binding experiment for CB1 and CB2 was performed in 96 well plates containing Standard Binding Buffer (50 mM Tris HCl, 1 mM EDTA, 3 mM MgCl2, 5 mg/ml fatty acid-free BSA, pH 7.4). The radioligand was [^3H]CP55940, and the reference compound was CP55940. A solution of the compound to be tested was prepared as a 1 mg/ml stock in DMSO and then diluted in Standard Binding Buffer by serial dilution. Radioligand was diluted to five times the assay concentration in Standard Binding Buffer. Aliquots (50 μl) of radioligand were dispensed into the wells of a 96-well plate containing 100 μl of Standard Binding Buffer. Then, duplicate 50-μl aliquots of the test and reference compound dilutions were added. Finally, crude membrane fractions of cells were resuspended in 3 ml of chilled Standard Binding Buffer and homogenized by several passages through a 26 gauge needle, then 50 μl were dispensed into each well. The 250-μl reactions were incubated at room temperature for 1.5 hours, and then harvested by rapid filtration onto Whatman GF/B glass fiber filters pre-soaked with 0.3% polyethyleneimine using a 96-well Brandel harverster. Four rapid 500-μl washes were performed. Filters were placed in 6-ml scintillation tubes and allowed to dry overnight. Bound radioactivity was harvested onto 0.3% polyethyleneimine-treated, 96-well filter mats using a 96-well Filtermate harvester. The filter mats were dried, then scintillant was melted onto the filters and the radioactivity retained on the filters counted in a Microbeta scintillation counter. Raw data (dpm) representing total radioligand binding (i.e., specific + non-specific binding) were plotted as a function of the logarithm of the molar concentration of the competitor (i.e., test or reference compound). Non-linear regression of the normalized (i.e., percent radioligand binding compared to that observed in the absence of test or reference compound) raw data was performed in Prism 4.0 (GraphPad Software) using the built-in three parameter logistic model describing ligand competition binding to radioligand-labeled sites: y = bottom + [(top-bottom)/(1 + 10 × -logIC50)] where bottom equals the residual radioligand binding measured in the presence of 10 μM reference compound (i.e., non-specific binding) and top equals the total radioligand binding observed in the absence of competitor. The log IC50 (i.e., the log of the ligand concentration that reduces radioligand binding by 50%) is thus estimated from the data and used to obtain the Ki by applying the Cheng-Prusoff approximation: Ki = IC50/(1 + [ligand]/KD) where [ligand] equals the assay radioligand concentration and KD equals the affinity constant of the radioligand for the target receptor.

Human CB2 [1] = target: T4, Human CB2 (Homo sapiens, UniProt P34972); assay: Radioligand competitive binding, [3H]CP55940, HEK293 cells; parameters: expressed in transfected cells; details: for Human CB2 (%) primary radioligand competitive binding: ligand 10 μM, HEK293 cells
T4 sequence (P34972 whole entry): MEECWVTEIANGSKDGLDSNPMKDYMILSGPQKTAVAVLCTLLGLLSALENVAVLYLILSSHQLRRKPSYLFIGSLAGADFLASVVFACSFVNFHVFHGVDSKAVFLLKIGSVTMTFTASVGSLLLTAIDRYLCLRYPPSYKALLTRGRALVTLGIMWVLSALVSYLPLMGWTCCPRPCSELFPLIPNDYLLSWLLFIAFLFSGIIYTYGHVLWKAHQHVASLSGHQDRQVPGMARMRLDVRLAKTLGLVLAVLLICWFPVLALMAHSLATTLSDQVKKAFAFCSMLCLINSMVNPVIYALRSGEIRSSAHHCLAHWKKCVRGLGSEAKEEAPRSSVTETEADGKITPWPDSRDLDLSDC
Procedure: as §1, §3

Human CB2 [2] = target: T4, Human CB2; assay: GTPγ[35S] functional assay, CHO cell membrane extracts; format: biochemical; parameters: expressed in transfected cells; host or cells: CHO cells (membrane extracts); details: for Emax: read-out: GTPγ[35S] functional assays Human CB2 Emax
Human CB1 = Human CB1 (Homo sapiens, UniProt P21554); assay: as above; parameters: Emax: dose or concentration left out as unconfirmed
Chain of Human CB1 (P21554 whole entry): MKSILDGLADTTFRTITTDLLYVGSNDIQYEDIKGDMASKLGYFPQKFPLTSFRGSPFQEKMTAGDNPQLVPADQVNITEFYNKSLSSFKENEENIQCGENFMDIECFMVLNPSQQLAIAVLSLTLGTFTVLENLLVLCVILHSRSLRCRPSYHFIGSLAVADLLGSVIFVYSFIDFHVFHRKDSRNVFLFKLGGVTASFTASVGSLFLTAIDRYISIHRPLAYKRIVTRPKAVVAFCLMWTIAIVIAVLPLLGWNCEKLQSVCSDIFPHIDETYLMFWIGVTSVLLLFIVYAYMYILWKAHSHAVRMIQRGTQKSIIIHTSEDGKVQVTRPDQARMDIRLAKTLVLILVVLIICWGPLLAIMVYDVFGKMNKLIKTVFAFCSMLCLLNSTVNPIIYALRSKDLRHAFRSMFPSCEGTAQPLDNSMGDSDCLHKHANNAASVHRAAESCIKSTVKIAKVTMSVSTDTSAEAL
Procedure: Functional activity was evaluated using GTPγ[^35S] assay in CHO cell membrane extracts expressing recombinant human CB1 or CB2 receptors as we previously described [51]. Compounds were solubilized in 100% DMSO at a concentration of 10 mM within 4 hours of the first testing session. A predilution for the dose response curve was performed in 100% DMSO and then diluted 100 fold in assay buffer at a concentration 2 fold higher than the concentration to be tested. […] Membranes were mixed with GDP diluted in assay buffer to give 30 μM solution (volume:volume) and incubated for at least 15 min on ice. In parallel, GTPγ[^35S] (GE Healthcare, Catalogue number SJ1308) were mixed with the beads (PVT-WGA (GE Healthcare, RPNQ001)), diluted in assay buffer at 50 mg/ml (0.5 mg/10 μl) (volume:volume) just before starting the reaction. The following reagents were successively added in the wells of an Optiplate (Perkin Elmer): 50 μl of ligand, 20 μl of the membranes:GDP mix, 10 μl of assay buffer for agonist testing, and 20 μl of the GTPγ[^35S]:beads mix. The plates were covered with a topseal, shacked on an orbital shaker for 2 min, and then incubated for 1 hour at room temperature. Then the plates were centrifuged for 10 min at 2000 rpm and counted for 1 min/well with a PerkinElmer TopCount reader. […] For replicate determinations, the maximum variability tolerated in the test was of ± 20% around the average of the replicates.

N-type calcium channels = target: T5, N-type calcium channels (Homo sapiens, UniProt Q00975); assay: Whole-cell patch-clamp on N-type calcium channels; format: cell-based; details: n = 5, read-out: effect on N-type calcium channels (inhibition)
T5 construct: expressed in transfected cells; host or cells: tsA-201 cells (general electrophysiology statement)

Compound	Rat 5-HT2C (%) primary radioligand competitive binding (rat 5-HT2C) [%]	Human 5-HT2A (%) primary radioligand competitive binding (human 5-HT2A) [%]	Ki (Rat CB1; NA: not active at 1 μM, read-out: Mean Ki Rat CB1) [nM]	Rat CB1 (%) primary radioligand competitive binding (Rat CB1) [%]	Ki (Human CB2 [1]; NA: not active at 1 μM, read-out: Mean Ki Human CB2) [nM]	Human CB2 (%) primary radioligand competitive binding (Human CB2 [1]) [%]	EC50 (Human CB2 [2]) [nM]	Emax (Human CB2 [2]) [%]	EC50 (Human CB1) [nM]	Emax (Human CB1; read-out: GTPγ[35S] functional assays Human CB1 Emax) [%]	inhibition at 10 µM (N-type calcium channels) [%]	Ki (Rat CB1) [nM]	Ki (Human CB2 [1]) [nM]
CCCCCn1c2ccc(C(=O)N3CCCCC3)cc2c2ccc(OC)cc21 [NMP-4]	-9.3	23.9	12.8 ± 1.8	99.3	7.5 ± 0.7	104.4	9.8 ± 0.3	-76.4	118 ± 4	30.4	–	–	–
CCCCCn1c2c(c3ccc(OC)cc31)CN(C(=O)c1ccccc1)CC2 [NMP-144]	13	-5.2	–	67.4	–	90.6	35.7 ± 13.9	-48.1	–	–	20	1140 ± 264	706 ± 110

Source: PMC3250956, “Functional characterization and analgesic effects of mixed cannabinoid receptor/T-type channel ligands” (Molecular Pain, 2011)
